Assay results from patent US20140031275A1, “METHODS OF ERADICATING BACTERIAL CELL POPULATIONS” (priority 2011, published 2014).

Columns and labels:
stationary S. aureus = conditions: high concentrations (24 μg/ml); sterilization not reported; cited from earlier work
[1] = tested on: stationary state S. aureus SA113; assay: Antibiotic action against stationary state S. aureus SA113 (MSSA), cfu counts; type: cell-based; conditions: for effect on stationary population of S. aureus cells: antibiotic alone, 5-day incubation, FIG. 1
Experimental: FIG. 1 is a graph showing antibiotic action against stationary state S. aureus. SA113.
(§1) Referring to FIG. 1, antibiotic action against stationary state S. aureus. SA113, an MSSA commonly used as a S. aureus model strain, was evaluated. S. aureus SA113 was grown in Mueller-Hinton broth for 24 hours. Antibiotics were added at day 0. Time-points were taken every 24 hours. 100 μl of culture was removed, centrifuged for one minute, and the cells were resuspended in PBS. Serial dilutions from neat to 10^−6 were spotted on MHA plates and incubated overnight at 37° C. The results shown in FIG. 1 are the averages of three independent experiments.

[2] = from literature, healthy volunteers; cited from earlier work
MRSA strain = assay: Oxacillin MIC of MRSA strain; type: cell-based, S. aureus; conditions: Staphylococcus aureus
Text: (§2) Resistance to methicillin and oxacillin is the hallmark of MRSA.

[3] = tested on: stationary MRSA 37 culture; type: cell-based, S. aureus
Experimental: Black line represents the limit of detection
The ability of ADEP 10c to kill an S. aureus MRSA strain was also evaluated.
as §2

S. aureus = assay: MIC against S. aureus; type: cell-based
Experimental: as §1

## CCCCCCCCCC(=O)N[C@@H](Cc1c[nH]c2ccccc12)C(=O)N[C@H](CC(N)=O)C(=O)N[C@@H](CC(=O)O)C(=O)N[C@@H]1C(=O)NCC(=O)N[C@@H](CCCN)C(=O)N[C@@H](CC(=O)O)C(=O)N[C@H](C)C(=O)N[C@@H](CC(=O)O)C(=O)NCC(=O)N[C@H](CO)C(=O)N[C@@H]([C@H](C)CC(=O)O)C(=O)N[C@@H](CC(=O)c2ccccc2N)C(=O)O[C@@H]1C [Daptomycin]
Stationary S. aureus
  activity against stationary S. aureus: some activity

## O=C(O)c1cn(C2CC2)c2cc(N3CCNCC3)c(F)cc2c1=O [ciprofloxacin]
[1]
  effect on stationary population of S. aureus cells: little effect

## CC(=O)NC[C@H]1CN(c2ccc(N3CCOCC3)c(F)c2)C(=O)O1 [linezolid]
[2]
  clinically achievable concentrations: 14.5 µg/mL
[1]
  effect on stationary population of S. aureus cells: little effect

## Cc1onc(-c2ccccc2)c1C(=O)N[C@@H]1C(=O)N2[C@@H]1SC(C)(C)[C@@H]2C(=O)O [oxacillin]
MRSA strain
  MIC: > 75 µg/mL
[2]
  clinically achievable concentrations: 16 µg/mL
[3]
  killing of clpP mutants of MRSA: killed clpP mutants of MRSA
[3]; oxacillin alone
  killing of stationary MRSA cells: no effect
[1]
  effect on stationary population of S. aureus cells: little effect

## CO[C@H]1/C=C/O[C@@]2(C)Oc3c(C)c(O)c4c(O)c(c(/C=N/N5CCN(C)CC5)c(O)c4c3C2=O)NC(=O)/C(C)=C\C=C\[C@H](C)[C@H](O)[C@@H](C)[C@@H](O)[C@@H](C)[C@H](OC(C)=O)[C@@H]1C [rifampicin]
[2]
  clinically achievable concentrations: 7.2 µg/mL

## L-proline, 3-fluoro-N-[(2E)-1-oxo-2-hepten-1-yl]-L-phenylalanyl-L-seryl-L-prolyl-(2S)-4-methyl-2-piperidinecarbonyl-L-alanyl-, (6→2)-lactone [ADEP 10c]
S. aureus; S. aureus
  MIC: 5 µg/mL
S. aureus; tested with a variety of MSSA and MRSA isolates
  MIC: 5 µg/mL
[1]
  cell numbers of the stationary population: about 10^4 per ml
  killing of stationary cells, ADEP 10c compared with ADEP 4: more efficacious at killing stationary cells
